According to publication PMC5877385, “Gold nanoparticles stabilize peptide-drug-conjugates for sustained targeted drug delivery to cancer cells” (Journal of Nanobiotechnology, 2018):
Where a SMILES comes first, the peptide text is derived from it. [ ]: non-standard residue; d: D form. The star is where a group is joined. Phe(4-N(CH2CH2Cl)2) = N[C@@H](Cc1ccc(N(CCCl)CCCl)cc1)C(=O)O; Chlorambucil = O=C(CCCc1ccc(N(CCCl)CCCl)cc1)*; X1 = Cn1c(CCCC(=O)*)nc2cc(N(CCCl)CCCl)ccc21

Assays:
A20 cells = test: Cell cytotoxicity assay (XTT); type: cell-based, murine; details: 72 h, free drug 0-50 µM; for IC50: Mus musculus
Experimental: To measure drug cytotoxic effect, cells were seeded into 96-wells Nunclon culture plates at 2.5 × 10^3 cells per well and grown overnight at 37 °C. The spent medium was removed and the cells cultured for 72 h in fresh medium containing either free drug, PDCs, PEG-AuNPs or PDC-PEG-AuNPs at concentrations ranging from 0 to 50 µM (drug) filtered through a 0.22 µm syringe. Cellular metabolic status, used as a measure of cell viability, was then determined by replacing the culture medium with fresh medium containing XTT reagent (50 µl/well) and the cells were re-cultured for 2 h sat 37 °C. Absorbance in the wells was measured at 450 nm and subtracted from the reference absorbance at 630 nm. Culture medium was used as background control. All experiments were performed in triplicate on three separate occasions. Data are presented as mean ± S.D.

[1] = Chemostability in phosphate buffer; type: physicochemical; details: free PDC; 0.01 M phosphate buffer (method pH 7.2), 37 °C, LC-MS PDC peak area, exponential decay fit, two independent experiments
Experimental: Stock solutions were prepared by dissolving 5 mg of P4-chlorambucil, P4-melphalan or P4-bendamustine coated PEG-AuNPs in 1 mL of deionized water.
100 μl of stock solution were diluted to 1 ml of 0.01 M phosphate buffer solution pH 7.2 and incubated at 37 °C. At designated time points an aliquot was removed and centrifuged at 5000 rpm for 5 min. The supernatant was recovered, filtered through a […] syringe and analyzed by LCMS for the presence of free drug. Results for each time point were expressed as mean % PDC integrity ± standard error, calculated from two independent experiments.
(§1) The chemo-stability of the P4-PDCs was tested at a physiological pH of 7.4, while the solutions were incubated at 37 °C. Biostability was assessed after incubation in a mouse liver homogenate. In each case aliquots were taken at selected times and analyzed by LC–MS. PDC integrity was determined by calculating the area under the curve of the PDC peak. The R^2 values of the exponential decay curves ranged from 0.97 to 0.99 for the three PDCs; the functions of these curves were used to calculate the t½ values. […] In liver homogenate (Fig. 5c), stability decayed more rapidly with half-lives ranging from 10.6 to 15.4 min. There was no significant difference in behavior between the three PDCs and no free drug was observed.

[2] = Biostability in liver homogenate; type: in vitro ADME; details: pH 7.4; free PDC; 100 µl sample in 1 ml mouse liver homogenate (6 mg total protein), 37 °C, LC-MS, exponential decay fit; read-out: Biostability (liver homogenate) t½
Experimental: Mice were sacrificed by CO2 euthanasia. Livers were removed, and rinsed in cold 0.01 M PBS buffer pH 7.4. They were transferred to 10 ml Tris-HCI, pH 7.4 and homogenized in a Potter–Elvehjem glass tissue grinder for 4 min. The tissue homogenate was centrifuged for 20 min at 4 °C, 14,000 rpm, and the supernatant was collected. Protein concentration was measured using the BCA protein assay using bovine serum albumin as a standard. The homogenate was used immediately or else stored in liquid nitrogen.
100 μl of each sample was added to 1 ml of liver homogenate (equivalent to 6 mg total protein). The samples were incubated at 37 °C and aliquots were taken during the different incubation period at different time intervals. The collected aliquots were immediately filtered, and analyzed by LC–MS.
as §1

Row | Compound | maximal %GI (growth inhibition) (A20 cells) | IC50 (A20 cells) | Chemostability (pH 7.4) t½ [1] | half-life [2]
1 | O=C(O)CCCc1ccc(N(CCCl)CCCl)cc1 [Chlorambucil] | 89.4% | 15.8 µM | – | –
2 | N[C@@H](Cc1ccc(N(CCCl)CCCl)cc1)C(=O)O [Melphalan] | 94.9% | 9.6 µM | – | –
3 | C[C@@H](O)[C@H](NC(=O)[C@H](CO)NC(=O)[C@H](Cc1c[nH]cn1)NC(=O)CCCc1nc2cc(N(CCCl)CCCl)ccc2n1C)C(=O)N1CCC[C@H]1C(=O)N[C@@H](CO)C(=O)N[C@@H](CO)C(=O)N1CCC[C@H]1C(=O)O [P4-Bendamustine] (X1-HSTPSSP-OH) | – | – | 19.3 mins | 15.4 min
4 | C[C@@H](O)[C@H](NC(=O)[C@H](CO)NC(=O)[C@H](Cc1c[nH]cn1)NC(=O)CCCc1ccc(N(CCCl)CCCl)cc1)C(=O)N1CCC[C@H]1C(=O)N[C@@H](CO)C(=O)N[C@@H](CO)C(=O)N1CCC[C@H]1C(=O)O [P4-Chlorambucil] (Chlorambucil-HSTPSSP-OH) | – | – | 21.5 mins | 12.4 min
5 | C[C@@H](O)[C@H](NC(=O)[C@H](CO)NC(=O)[C@H](Cc1c[nH]cn1)NC(=O)[C@@H](N)Cc1ccc(N(CCCl)CCCl)cc1)C(=O)N1CCC[C@H]1C(=O)N[C@@H](CO)C(=O)N[C@@H](CO)C(=O)N1CCC[C@H]1C(=O)O [P4-Melphalan] (H-[Phe(4-N(CH2CH2Cl)2)]HSTPSSP-OH) | – | – | 24.6 mins | 10.6 min
6 | Cn1c(CCCC(=O)O)nc2cc(N(CCCl)CCCl)ccc21 [bendamustine] | 43.1% | > 50 µM | – | –
